In patent US5348956A, “Substituted cyclopropylamino-1,3,5-triazines” (UCB S.A., priority 1991, dated 1994):
Like-named read-outs stand apart in the source and are kept apart here.

Assays:
[1] = tested on: bronchospasm induced by serotonin; test: bronchospasmolytic activity (Konzett and Roessler), bronchospasm induced by serotonin; assay type: in vivo, Dunkin-Hartley guinea-pig; details: Cavia porcellus, iv, read-out: Doses (ID50), Serotonin
Description: (§1) This activity was measured in the Dunkin-Hartley guinea-pig by the method of H. KONZETT and […] (Naunyn Schmiedebergs Arch. exp. Path. […] The anesthetized (urethane) and curarized (gallamine) guinea-pig is placed under assisted respiration. The endotracheal pressure is recorded. […] The compound to be tested is also administered intravenously two minutes before the administration of the spasmogen and then in 3 to 4 cumulative doses in increasing amounts at intervals of 15 minutes. Six animals per compound to be tested and per spasmogen are used.

[2] = tested on: bronchospasm induced by histamine; test: bronchospasmolytic activity (Konzett and Roessler), bronchospasm induced by histamine; assay type: in vivo, Dunkin-Hartley guinea-pig; details: Cavia porcellus, iv, read-out: Doses (ID50), Histamine
Description: as §1

[3] = tested on: bronchospasm induced by acetylcholine; test: bronchospasmolytic activity (Konzett and Roessler), bronchospasm induced by acetylcholine; assay type: in vivo, Dunkin-Hartley guinea-pig; details: Cavia porcellus, iv, read-out: Doses (ID50), Acetylcholine
Description: as §1

[4] = tested on: plantar edema induced by immune complexes; test: "reverse passive Arthus" (RPA) test, anti-inflammatory and anti-edema activity; assay type: in vivo, Sprague-Dawley rat; details: Rattus norvegicus, intravenous
Description: The reaction between a soluble antigen and antibodies in the organism may lead to an acute inflammatory reaction accompanied by release of histamine, modification of vascular permeability and formation of a localized edema. […] To this end, the Arthus reaction is induced by subplantar administration of 0.1 ml of heterologous antivalbumin reaginic serum into the right hind paw and by simultaneous intravenous injection of 1 ml/kg ovalbumin (25 mg/ml). The compound to be tested is administered intravenously 30 seconds before induction of the Arthus reaction, in a least 3 different doses. A group of 6 rats is used per dose of compound to be tested. The volume of the paw is measured by plethysmometry before the Arthus reaction and 3 to 5 hours after induction of the Arthus reaction, both in the control animals and in the treated animals. The effect of a compound on the reduction in the edema for each dose and at each measurement time (3 hours and 5 hours) is expressed in % of the edema observed in the control animals. The doses of the compounds (ID30 in μmole/kg) which inhibit by 30%, on average over all the animals, the volume of the edema observed in the control animals are given in Table VII below.

[5] = tested on: anaphylactic release of histamine, guinea-pig lung sections; test: inhibition of the anaphylactic release of histamine (proper effect); assay type: cell-based, Dunkin-Hartley guinea-pigs; details: Cavia porcellus, in vitro, read-out: Minimum inhibitory dose (MID)
Description: (§2) Dunkin-Hartley guinea-pigs which are first passively sensitized by an intravenous injection of 1 ml of isologous antiovalbumin serum are used. Twenty-four hours after the injection, the lungs are then perfused with a Tyrode buffer to evacuate the blood, and then removed and cut into sections of 1 mm. These sections are divided up into test tubes (3 sections per tube) to give 10 experimental groups of lung sections per guinea-pig. A "positive" control group of lung sections is stimulated by addition of an ovalbumin solution (0.1 mg/ml) to induce the anaphylactic release of histamine and serves to determine the maximum amount of histamine (100%) which can be released. A "negative" control group which is not stimulated by ovalbumin serves to determine the naturally released amount of histamine (spontaneous release). In three other groups, the lung sections are incubated at 37° C. for 30 minutes in the ovalbumin solution in the presence of three different doses of the compound to be tested (one dose per group). […] At this dose, isoprenaline inhibits the release of histamine by 30 to 40%, which is verified on a control group treated only with isoprenaline alone at this dose. In addition, a supplementary control group which is not stimulated by ovalbumin is used to detect a possible spontaneous release of histamine by the highest dose of the compound tested. In each group, the histamine released in the incubation medium is measured by spectrofluorometry (D. P. EVANS et al., Life Sci., 12, (1973), 327-336).

[6] = tested on: anaphylactic release of histamine, guinea-pig lung sections; test: potentiation of the inhibition of anaphylactic histamine release by isoprenaline; assay type: cell-based, Dunkin-Hartley guinea-pigs; details: with isoprenaline 10^-7 mole per liter
Description: as §2

[7] = tested on: longitudinal muscles of the ileum contracted by histamine; test: potentiation of the myorelaxing effect of isoprenaline on the ileum; assay type: cell-based, Dunkin-Hartley guinea-pigs; details: with isoprenaline 10^-7 mole/l; histamine 3.2 μmoles/l
Description: (cf. R. A. TURNER, "Screening Methods in Pharmacology", Ed. Acad. Press, San Diego, 1965, chapter IV, pages 43-47). […] Inhibition cycle: When the successive contractions induced by the histamine injections have become reproducible, the compound to be tested is injected immediately after the second wash. The contraction induced by the following injection of histamine is measured and compared with the average of the three preceding contractions caused by the repeated injections of histamine (control contractions). From the result obtained, the percentage inhibition of the contraction is calculated. Several cycles of histamine injection are then performed again, until the contractions of the muscle become reproducible again; the muscle is then ready for testing of another compound. The potentiating effect of a compound is measured in the course of a so-called "potentiation" cycle, which comprises three successive inhibition cycles. […] In the course of the second inhibition cycle, the percentage inhibition of the contraction obtained with the compound to be tested, injected alone at a given dose, is determined. In the third inhibition cycle, isoprenaline and the compound to be tested are injected simultaneously, and the percentage inhibition of the contraction is calculated for the dose used of the compound tested. The same experiments are repeated for each of the doses of the compounds tested.

[8] = tested on: PMN granulocytes; test: inhibition of the stimulation of PMN granulocytes (chemiluminescence); assay type: cell-based, Rat
Text: Polymorphonuclear neutrophil granulocytes (PMN) are cells which are mobilized during inflammatory phenomena and which can be stimulated by various compounds, such as, for example, formylmethionyl-leucylphenylalanine (FMLP) or prostaglandins E (PGE1). The PMN granulocytes respond to these extracellular stimuli with an activation of the oxygen metabolism with release of toxic oxygenated metabolites. An excessive response of the PMN granulocytes may be the cause of a painful inflammation and is also accompanied by a reduction in the level of cyclic adenosine monophosphate (cAMP) in these granulocytes. Consequently, compounds which inhibit the respiratory burst of PMN granulocytes or which increase the level of cAMP can be regarded as very important in the treatment of arthritis and asthma. […] Rat PMN granulocytes (5×10^6 /ml) are preincubated in a phosphate buffer ([…], pH 7.4), containing luminol at a concentration of 10^-5 mole per liter, for 15 minutes at 37° C. and then for 5 minutes in the presence of the compound to be treated at a concentration of 10^-6 mole/liter. […] The luminescence which results from the stimulation is measured by means of an LKB 1251 luminometer according to the method of […] and […] (Infection and Immunology, 37, (1982), 34-39). An experimental cycle lasts 38 seconds. The reaction is repeated 9 times for each compound to be tested and the average of the results obtained is calculated.

[9] = tested on: cAMP in PMN granulocytes; test: increase in the level of cAMP in PMN granulocytes; assay type: cell-based, Rat; details: […]10^-6 mole per liter; PGE1 10^-6 mole/liter; control 4.3
Text: Polymorphonuclear neutrophil granulocytes (PMN) are cells which are mobilized during inflammatory phenomena and which can be stimulated by various compounds, such as, for example, formylmethionyl-leucylphenylalanine (FMLP) or prostaglandins E (PGE1). The PMN granulocytes respond to these extracellular stimuli with an activation of the oxygen metabolism with release of toxic oxygenated metabolites. An excessive response of the PMN granulocytes may be the cause of a painful inflammation and is also accompanied by a reduction in the level of cyclic adenosine monophosphate (cAMP) in these granulocytes. […] The reaction is then stopped by addition of 1 ml of propanol. After centrifugation at 15,000 g for 3 minutes, the supernatant is recovered and evaporated and the amount of cAMP in the residue is determined by radioimmunological assay according to the process recommended by the supplier of the reagent used for this purpose (Amersham). A control test is carried out under the same conditions, but in the absence of the compound to be tested.

Which ED50 [1] does the source give for `Cn1c(=O)c2[nH]cnc2n(C)c1=O` [theophylline, reference compound] here?
Its ED50 is 4.6 µmol/kg.

And the ED50 [2]?
The ED50 was 5.6 µmol/kg.

And the ED50 [3]?
The ED50 was 10 µmol/kg.

What about the ED30 ([4]; 3 hours after induction of the Arthus reaction, read-out: Dose (ID30), 3 hours) of the same molecule?
The ED30 was 18 µmol/kg.

What about the ED30 ([4]; 5 hours after induction of the Arthus reaction, read-out: Dose (ID30), 5 hours) of the same molecule?
The ED30 was 10 µmol/kg.

What about the minimal effective concentration [5] of the same molecule?
The minimal effective concentration was 100 µM.

And the “Minimum potentiating dose (MPD)” value [6]?
The value was 1000.0 µmol/L.

What about the “Minimum potentiating dose (MPD)” value [7] of the same molecule?
Its value is 1000.0 µmol/L.

What about the “inhibition of the stimulation of PMN granulocytes” value ([8]; 10^-6 mole/l) of the same molecule?
The value was “completely inactive”.

What about the activity at 100 µM ([8]; Rattus norvegicus, 10^-4 mole/l, read-out: Residual chemiluminescence) of the same molecule?
Its activity at 100 µM is 65%.

What about the activity at 1 µM ([8]; Rattus norvegicus, 10^-6 mole/l, FMLP 3.2×10^-7 mole/liter, read-out: Residual chemiluminescence) of the same molecule?
Its activity at 1 µM is 100%.

And the “Amount of cAMP produced” value [9]?
Its value is 5.0 picomoles per 10^7 cells.
